Laboratory results published in patent publication US20260274794A1, “COMPOUNDS, COMPOSITIONS, AND METHOD OF INHIBITING TAU PROTEIN AND ALPHASYNUCLEIN AGGREGATION” (Purdue Research Foundation, priority 2023, published 2026).
“Also recorded” adds a separate entry of the source.

Key:
α-syn = α-syn (Homo sapiens, UniProt P37840); experiment: PICUP assay of α-syn oligomerization; assay type: biochemical; parameters: purchased rPeptide, LLC (Watkinsville, GA); conditions: for α-syn oligomerization (PICUP crosslinking): compound 50 μM; for α-syn oligomer formation, PICUP dose-response: compound 3.125-50 μM
Procedure: (§1) To force the oligomerization by cross-linking, α-syn (from Rpeptide, LLC) and tau isoform 2N4R were diluted in 10 mM phosphate buffer (pH 7.4) to reach a final concentration of 10 μM [27]. Different compounds were added to the protein solution at a final concentration of 50 μM, resulting in a molar ratio of 1:5. To confirm the gradual effect of the compounds on the inhibition of α-syn oligomerization, compounds were tested at final concentration of 3.125, 6.25, 12.5, 25, and 50 μM. The controls consisted of samples without light exposition, without Ru(bpy), and without compound (i.e., 0.125% DMSO). The cross-linking reaction was initiated by the addition of 2 μL of Ru(bpy) (300 μM final concentration) and 2 μL ammonium persulfate (6 mM final concentration). Samples were irradiated immediately. Light exposition was of 1 second duration for ca-syn and 3 second duration for tau isoform 2N4R, with a 53 W (120 V) incandescent lamp installed in a homemade dark-box. Each tube contained a final volume of 20 μL. After irradiation, 8.3 μL. of Lammeli loading buffer containing 15% β-mercaptoethanol was immediately added to the solution, followed by incubation at 95° C. for 10 minutes. The cross-linked samples were separated on a 16% SDS-Page gel and visualized by Coomassie blue staining.
(§2) One end point used to verify the propensity of misfolded protein in the drug discovery field is the inhibition of oligomer formation. The photo-induced cross-linking of unmodified proteins (PICUP) assay was used to investigate α-syn (60 μM) and tau isoform 2N4R (6 μM) oligomerization in the presence of eight amide compounds (2, 4, 5, 6, 7, 8, 13, and 17 at 50 μM, i.e., ~molar ratio 1:8 for tau). After being subjected to short light exposure, α-syn and tau were cross-linked and Coomassie-stained resolved as a higher molecular weight compared to control (0.125% DMSO). […] Compound 13 was used as a negative control for the α-syn PICUP.
(§3) PICUP assays were performed with different concentrations (50 μM, 25 μM, 12.5 μM, 6.25 μM, 3.125 μM; control=0.125% DMSO) for each lead compound.

tau isoform 2N4R = target: T1, tau isoform 2N4R (Homo sapiens, UniProt P10636); experiment: PICUP assay of tau isoform 2N4R oligomerization; assay type: biochemical; conditions: compound 50 μM
T1 construct: made in house; host or cells: E. coli BL21 (DE3), vector pRK172
Procedure: as §1, §2, §3

α-synuclein (α-syn) = target: T2, α-synuclein (α-syn) (Homo sapiens, UniProt P37840); experiment: Thioflavin T (ThT) fluorescence assay of α-syn fibril formation; assay type: biochemical; conditions: compound 3.125-100 μM, α-syn 2 μM, plateau phase
T2 construct: purchased rPeptide, LLC (Watkinsville, GA)

[1] = Brain and plasma concentration after administration; assay type: in vivo; conditions: 1 mg/kg
Procedure: For compound 8, the brain concentration and plasma concentration ratio is equal to more than 1 for the 3 time points (0.08, 0.5 and 1 hour) where the compound was detected, which is adequate.

[2] = Mouse microsomal stability; assay type: in vitro ADME

T1 sequence (P10636 1-441 isoform P10636-8): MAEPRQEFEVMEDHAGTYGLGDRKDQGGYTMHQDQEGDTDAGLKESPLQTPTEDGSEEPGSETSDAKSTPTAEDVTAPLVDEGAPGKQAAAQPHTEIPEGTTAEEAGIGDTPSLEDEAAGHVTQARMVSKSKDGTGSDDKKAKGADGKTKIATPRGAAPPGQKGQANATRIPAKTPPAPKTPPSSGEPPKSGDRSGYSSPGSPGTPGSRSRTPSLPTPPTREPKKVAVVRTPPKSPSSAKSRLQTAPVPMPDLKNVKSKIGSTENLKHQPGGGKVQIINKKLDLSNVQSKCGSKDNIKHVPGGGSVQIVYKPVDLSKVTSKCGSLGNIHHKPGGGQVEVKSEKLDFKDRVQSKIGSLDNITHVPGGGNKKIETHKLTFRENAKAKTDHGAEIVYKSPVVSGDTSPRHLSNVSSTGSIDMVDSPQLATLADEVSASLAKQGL

Compound | α-syn oligomerization (PICUP crosslinking) (α-syn) | α-syn oligomer formation, PICUP dose-response (α-syn) | tau isoform 2N4R oligomerization (PICUP crosslinking) (tau isoform 2N4R) | α-syn fibrillization, ThT dose-response (α-synuclein (α-syn)) | Half-life [1] | detection of compound over time [1] | Kp ([1]; brain and plasma, 0.08, 0.5 and 1 hour, read-out: brain concentration and plasma concentration ratio) | Mouse microsomal stability [2] [%]
O=C(Nc1cccc2[nH]ccc12)c1ccccc1 [Compound 2, N-(1H-indol-4-yl)benzamide] | effectively prevented this crosslinking | prevented α-syn oligomer formation in a dose-dependent manner | effectively prevented this crosslinking; also recorded: prevented tau 2N4R oligomer formation | reduction in protein fibrillization when subjected to higher concentrations | – | – | – | –
O=C(Nc1cccc2[nH]ccc12)c1ccc(F)cc1 [Compound 8, 4-fluoro-N-(1H-indol-4-yl)benzamide] | effectively prevented this crosslinking | prevented α-syn oligomer formation in a dose-dependent manner | effectively prevented this crosslinking; also recorded: prevented tau 2N4R oligomer formation | reduction in protein fibrillization when subjected to higher concentrations | presumed to be short | not detected beyond the time point of 60 min | > 1 | 70
